Reference: patent publication US8859628B2, “Method for preventing, treating and diagnosing disorders of protein aggregation” (priority 2003, dated 2014)
Entries after “also recorded” stand apart in the source; their conditions may differ. Marks after values point to notes of the source that are not given here.

What was measured:
TgCRND8 mice [1] = experiment: Cerebral Aβ content (Aβ40 and Aβ42 kits on hemi-brain homogenates); type: in vivo, mouse; parameters: Total Aβ: unit not given here
Procedure: (§1) Plasma and Cerebral Aβ Content—Hemi-brain samples were homogenized in a buffered sucrose solution, followed by either 0.4% diethylamine/100 mM NaCl for soluble Aβ levels or cold formic acid for the isolation of total Aβ. After neutralization the samples were diluted and analyzed for Aβ40 and Aβ42 using commercially available kits (BIOSOURCE International). Each hemisphere was analyzed in triplicate with the mean±SEM reported. Western blot analyses were performed on all fractions using urea gels for Aβ species analyses. Aβ was detected using 6E10 (BIOSOURCE International) and Enhanced Chemiluminenscence (Amersham).
as §1, with “reported.” for “reported. Western blot analyses were performed on all fractions using urea gels for Aβ species analyses. Aβ was detected using 6E10 (BIOSOURCE International) and Enhanced Chemiluminenscence (Amersham).”

TgCRND8 mice [2] = experiment: Cerebral amyloid plaque burden (anti-Aβ immunostaining, image analysis); type: in vivo, mouse
Procedure: (§2) Cerebral amyloid burden—Brains were removed and one hemisphere was fixed in 4% paraformaldehyde and embedded in paraffin wax in the mid saggital plane. To generate sets of systematic uniform random sections, 5 μm serial sections were collected across the entire hemisphere. Sets of sections at […] intervals were used for analyses (10-14 sections/set). Plaque were identified after antigen retrieval with formic acid, and incubated with primary anti-Aβ antibody (Dako M-0872), followed by secondary antibody (Dako StreptABCcomplex/horseradish kit). End products were visualized with DAB counter-stained with hematoxylin. Amyloid plaque burden was assessed using Leco IA-3001 image analysis software interfaced with Leica microscope and Hitachi KP-M1U CCD video camera. Vascular burden was analyzed similarly and a dissector was used to measure the diameter of affected vessels.
as §2, with “camera.” for “camera. Vascular burden was analyzed similarly and a dissector was used to measure the diameter of affected vessels.”

TgCRND8 mice [3] = experiment: Gliosis quantitation (GFAP astrocytes, CD68 microglia); type: in vivo, mouse; conditions: prevention
Source text: Gliosis Quantitation—Five randomly selected, evenly spaced, sagittal sections were collected from paraformaldehyde-fixed and frozen hemispheres of treated and control mice. Sections were immunolabelled for astrocytes with anti-rat GFAP IgG2a (Dako; diluted 1:50) and for microglia with anti-rat CD68 IgG2b (Dako; 1:50).
Serial sagittal sections were stained with the astrocytic marker glial fibrillary acidic protein (GFAP) and quantitated for percent brain area covered by astrogliosis.

TgCRND8 mice [4] = experiment: Vascular amyloid burden; type: in vivo, mouse; conditions: 6 months of age
Procedure: as §2
Alzheimer's disease is characterized by the presence of both parenchymal and vascular amyloid deposits. In untreated 6 month old TgCRND8 mice approximately 0.03% of the brain area is associated with vascular amyloid.

TgCRND8 mice [5] = experiment: Survival census (Kaplan-Meier); type: in vivo, mouse; conditions: at 175 days; n=35 per group
Procedure: Survival Census—The probability of survival was assessed by the Kaplan-Meier technique, computing the probability of survival at every occurrence of death, thus making it suitable for small sample sizes. For the analyses of survival, 35 mice were used for each treatment group. The comparison between treatments was reported using the Tarone-Ware test.

TgCRND8 mice [6] = experiment: Morris Water Maze, spatial reference memory version, three-day trial paradigm (treatment/reversal study); type: in vivo, mouse; conditions: three-day paradigm
Procedure: A cohort entered the study at 5 months of age and outcomes were analyzed at 6-months of age. The body weight, coat characteristics and in cage behavior was monitored. All experiments were performed according to the Canadian Council on Animal Care guidelines.
(§3) Behavioral Test—Reversal Study—Mice entered the Morris water maze test with a hidden platform on day one without pretraining. Mice were tested for 3 days with six trials per day. On the fourth day, the platform was removed from the pool and each mouse received one 30-s swim probe trial. On the last day the animals underwent a cue test in order to evaluate swimming ability, eye sight and general cognition. The cue test is composed at the platform being placed in a different quadrant than that used for testing and is tagged with a flag. Animals are allowed 60 s to find the platform. […] Behavioural data was analysed using a mixed model of factorial analysis of variance (ANOVA) with drug or genotype and training sessions as repeated measure factors.
The cognitive function of TgCRND8 mice was assessed using the spatial reference memory version of the Morris Water Maze using a three day trial paradigm (FIGS. 4-8).
Behavioural data was analysed using a mixed model of factorial analysis of variance (ANOVA) with drug and genotype as between subject variables and training sessions as within subject variable.
(§4) In these experiments, the dosage and oral administration of compounds, and the behavioral and neurochemical assays were the same as those employed in the above treatment experiments.

TgCRND8 mice [7] = conditions: mouse, in vivo
Source text: Animals were sacrificed after one month of treatment and analysed for pathological outcomes.
as §4

TgPS1xAPP mice = experiment: Plaque burden in double transgenic PS1 x APP model (prophylactic trial); type: in vivo, mouse; conditions: 2 months of age
Source text: Tg PS1 x APP mice are an enhanced model of Alzheimer's disease which express a mutant human PS1 transgene encoding two familial mutations (M146L and L286V) in conjunction with the human APP transgene encoding the Indiana and Swedish familial mutations. These animals develop robust expression of cerebral Aβ levels and amyloid deposition by 30-45 days of age.

non-Tg littermates = experiment: Morris Water Maze performance of treated non-Tg littermates; type: in vivo, mouse; conditions: treated vs untreated non-Tg
Procedure: Behavioral tests—After non-spatial pre-training, mice underwent place discrimination training for 5 days with 4 trials per day. Behavioral data was analyzed using a mixed model of factorial analysis of variance (ANOVA) with drug or genotype and training sessions as repeated measure factors.
as §3

[8] = 1 month treatment from 5 months of age
[9] = 1 month treatment, 30 mg/mouse/day from 5 months, analyzed at 6 months of age
[10] = 4 month prevention, 30 mg/mouse/day from 6 weeks of age
[11] = 6 month prevention, 30 mg/mouse/day from 6 weeks of age
[12] = prevention, 6 months of age, vs untreated TgCRND8
[13] = prevention, four months of age, vs untreated TgCRND8

Question: How did the “Aβ load vs untreated” value (TgCRND8 mice [1]; [8]) turn out when `O[C@H]1[C@H](O)[C@@H](O)[C@H](O)[C@@H](O)[C@@H]1O` [Scyllo-Inositol, scyllo-inositol] was run?
Answer: significantly decreased the plaque burden and the Aβ load

Question: And the “Total Aβ” value (TgCRND8 mice [1]; [9])?
Answer: 15194 ± 579

Question: What about the “Total Aβ” value (TgCRND8 mice [1]; [10]) of the same compound?
Answer: 5089 ± 173

Question: What about the “Total Aβ” value (TgCRND8 mice [1]; [11]) of the same compound?
Answer: 15621 ± 151

Question: And the “reduction in Aβ40 levels” value (TgCRND8 mice [1]; [12])?
Answer: 32%

Question: What about the “reduction in Aβ42” value (TgCRND8 mice [1]; [12]) of the same compound?
Answer: 20%

Question: And the “decrease of total brain Aβ40” value (TgCRND8 mice [1]; [13])?
Answer: 62%

Question: What about the “decrease of total brain Aβ42” value (TgCRND8 mice [1]; [13]) of the same compound?
Answer: 22%

Question: What about the “plaque burden vs untreated” value (TgCRND8 mice [2]; [8]) of the same compound?
Answer: significantly decreased the plaque burden and the Aβ load

Question: What about the “Plaque Area” value (TgCRND8 mice [2]; [9]) of the same compound?
Answer: 420027 ± 14986* μm^2

Question: What about the “Plaque Count” value (TgCRND8 mice [2]; [9]) of the same compound?
Answer: 1260 ± 27

Question: And the “Total Plaque Area/Total Brain Area” value (TgCRND8 mice [2]; [9])?
Answer: 0.119 ± 0.010 %

Question: And the “Plaque Area” value (TgCRND8 mice [2]; [10])?
Answer: 63847 ± 2895 μm^2

Question: What about the “Plaque Count” value (TgCRND8 mice [2]; [10]) of the same compound?
Answer: 598 ± 19

Question: And the “Total Plaque Area/Total Brain Area” value (TgCRND8 mice [2]; [10])?
Answer: 0.015 ± 0.001 %

Question: And the “Plaque Area” value (TgCRND8 mice [2]; [11])?
Answer: 262379 ± 5373† μm^2

Question: What about the “Plaque Count” value (TgCRND8 mice [2]; [11]) of the same compound?
Answer: 774 ± 10

Question: And the “Total Plaque Area/Total Brain Area” value (TgCRND8 mice [2]; [11])?
Answer: 0.079 ± 0.013 %

Question: And the “amyloid/plaque burden vs untreated (words)” value (TgCRND8 mice [2]; 6 months of age, prevention)?
Answer: significantly decreased amyloid burden and gliosis; also recorded: decreases plaque deposition

Question: And the mean plaque size (TgCRND8 mice [2]; prevention, 4 months of age)?
Answer: 103±4 μm^2

Question: What about the “decrease in brain area covered with plaques” value (TgCRND8 mice [2]; prevention, 6 months of age) of the same compound?
Answer: 35%

Question: What about the mean plaque size (TgCRND8 mice [2]; prevention, 6 months of age) of the same compound?
Answer: 339±10 μm^2

Question: And the “reduction in plaque number” value (TgCRND8 mice [2]; prevention, 6 months of age)?
Answer: 20%

Question: And the “astrogliosis/gliosis vs untreated” value (TgCRND8 mice [3]; 6 months of age)?
Answer: significantly decreased amyloid burden and gliosis

Question: What about the “astrogliosis, percent brain area covered (GFAP)” value (TgCRND8 mice [3]; 6-months of age) of the same compound?
Answer: 0.269±0.028%

Question: What about the “microglial activation, % brain area” value (TgCRND8 mice [3]; 6 months) of the same compound?
Answer: 0.20±0.008%

Question: What about the “mean size of cerebrovascular plaques” value (TgCRND8 mice [4]; prevention) of the same compound?
Answer: 154±16

Question: And the “vascular amyloid burden vs untreated (words)” value (TgCRND8 mice [4]; prevention, listed as Scyllo-inositol)?
Answer: significantly decreased the total vascular load

Question: What about the “vascular amyloid burden vs untreated (words)” value (TgCRND8 mice [4]; prevention, listed as scyllo-inositol) of the same compound?
Answer: significantly decreased the vascular amyloid burden

Question: What about the “vascular amyloid deposition in small vessels” value (TgCRND8 mice [4]; smaller vessels) of the same compound?
Answer: 56±2%

Question: And the survival (TgCRND8 mice [5])?
Answer: 72%

Question: And the “cognitive function, treated TgCRND8 mice vs non-Tg littermates (words)” value (TgCRND8 mice [6]; [8])?
Answer: indistinguishable from non-Tg littermates on all days; also recorded: comparable to scyllo-inositol treated non-Tg littermates

Question: What about the “cognitive function, treated TgCRND8 mice vs treated non-Tg littermates” value (TgCRND8 mice [6]; two months of treatment from 5 months of age) of the same compound?
Answer: indistinguishable from scyllo-inositol treated non-Tg littermates; also recorded: remained indistinguishable from non-Tg littermates

Question: What about the “effects on blood chemistry or organ function” value (TgCRND8 mice [7]) of the same compound?
Answer: do not exhibit obvious deleterious effects on blood chemistry or organ function

Question: What about the “amyloid/plaque burden vs untreated (words)” value (TgPS1xAPP mice; listed as Scyllo-inositol) of the same compound?
Answer: significantly decreased amyloid burden

Question: What about the “amyloid/plaque burden vs untreated (words)” value (TgPS1xAPP mice; listed as scyllo-inositol) of the same compound?
Answer: significantly reduced

Question: And the “% brain area covered in plaques” value (TgPS1xAPP mice; treated from weaning)?
Answer: 0.065±0.016%

Question: And the Plaque Count (TgPS1xAPP mice; treated from weaning)?
Answer: 1514±510

Question: What about the mean plaque size (TgPS1xAPP mice; treated from weaning) of the same compound?
Answer: 149±5 μm^2

Question: What about the “effect on performance of non-Tg mice” value (non-Tg littermates) of the same compound?
Answer: had no effect on the performance of non-Tg mice; also recorded: not effected
